The text below walks through data of patent US7807703B2, “Substituted aryl ketones” (Bayer CropScience AG, priority 2002, dated 2010).

This data set in a line: log P determination by reversed-phase HPLC (EEC Directive 79/831 Annex V.A8; acidic or neutral mobile phase). Type of data set: physicochemical. The note with it: for logP (HPLC, mobile phase not marked) / log P / log P (acidic) / chromatographic logP: reversed-phase C 18, 43° C., HPLC; for logP (HPLC, mobile phase not marked) / log P: mobile phase range not marked; for log P (acidic) / chromatographic logP: acetonitrile (marked a) or acidic); for chromatographic logP: reversed-phase C18 HPLC column, read-out: log P (acidic). The method, then:
The log P values given in the table were determined in accordance with EEC Directive 79/831 Annex V.A8 by HPLC (High Performance Liquid Chromatography) using a reversed-phase column (C 18). Temperature: 43° C.
(a) Mobile phases for the determination in the acidic range: 0.1% aqueous phosphoric acid, acetonitrile; linear gradient from 10% acetonitrile to 90% acetonitrile—the corresponding measurement results are marked a) in Table 1.
(b) Mobile phases for the determination in the neutral range: 0.01 molar aqueous phosphate buffer solution, acetonitrile; linear gradient from 10% acetonitrile to 90% acetonitrile—the corresponding measurement results are marked b) in Table 1.

[1] abbreviates: HPLC, reversed-phase C18, 43° C.; acidic range a): 0.1% aqueous phosphoric acid, acetonitrile, linear gradient 10% to 90% acetonitrile.
Where [2] appears, read: acidic range: 0.1% aqueous phosphoric acid.
The mark [3] stands for this setting: HPLC reversed-phase C18, 43° C., acidic range: 0.1% aqueous phosphoric acid, acetonitrile gradient (marked a)).

Turning to `CCn1ncc(C(=O)c2ccc(S(C)(=O)=O)c(CN(OC)C(C)C)c2Cl)c1O` [Example 344], the “logP (HPLC, mobile phase not marked)” value is given as 2.52.
Regarding `CCOC(=O)c1ccc(Cl)c(OCCNS(C)(=O)=O)c1Cl` [VIII-14], the “log P” value is recorded as “logP = 2.24”.
For `CON(Cc1c(S(C)(=O)=O)ccc(C(=O)c2cnn(C)c2O)c1Cl)C(C)C1CC1` (stereo not shown) [Example 374], the logP result under setting [1] is on record as “(I-2) logP = 2.53^a)”.
Same read-out and setting: the result for `CCN(Cc1c(Cl)ccc(C(=O)C2C(=O)CC(C)CC2=O)c1OC)S(C)(=O)=O` (stereo not shown) [Example 474] reads “(I-2) logP = 2.81^a)”.
Regarding `COC(=O)c1ccc(Cl)c(OCCNS(C)(=O)=O)c1C` [VIII-26], the “log P (acidic)” value under setting [2] is listed as “logPacidic = 2.14”.
On to `CC(C)S(=O)(=O)NCCOc1c(Cl)ccc(C(=O)C2C(=O)CCCC2=O)c1Cl` [Example 25], for which the logP entry under setting [3] is listed as “logP = 2.50^a)”.
On to `COC(=O)c1ccc(S(C)(=O)=O)c(CN(Cc2ccoc2)OC)c1Cl` [VIII-57], for which, under setting [2], the “log P (acidic)” value is given as “logPacidic = 2.91”.
On the same count and under the same terms, for `COC(=O)c1ccc(S(C)(=O)=O)c(CN(OC)C2CCSCC2)c1Cl` [VIII-40] the value was “logPacidic = 3.20”.
With `CCONCc1c(Cl)ccc(C(=O)C2C(=O)CCCC2=O)c1OC` [Example 447], under setting [1], the logP result is given as “logP = 2.20^a)”.
Still for that read-out and setting: for `CS(=O)(=O)c1ccc(C(=O)C2C(=O)CCCC2=O)c(Cl)c1CNOC1CCCC1` [Example 401] the value was “(I-2) logP = 3.07^a)”.
For the compound `COC(=O)c1ccc(S(C)(=O)=O)c(CN(OC)C(C)C2CC2)c1Cl` (stereo not shown) [VIII-37], the “log P (acidic)” value under setting [2] is listed as “logPacidic = 3.58”.
For the compound `CCn1ncc(C(=O)c2ccc(Cl)c(CN(C)S(C)(=O)=O)c2Cl)c1O` [Example 456], the logP result under setting [1] was “logP = 1.72^a)”.
For the compound `Cc1c(C(=O)c2cnn(C)c2O)ccc(Br)c1OCCNS(C)(=O)=O` [Example 366], the logP entry under setting [1] was “logP = 1.56^a)”.
Turning to `CN(Cc1c(S(C)(=O)=O)ccc(C(=O)C2C(=O)CCCC2=O)c1Cl)OCC1CC1` [Example 444], the logP entry under setting [1] is listed as “(I-2) logP = 3.14^a)”.
Consider `O=C1CCCC(=O)C1C(=O)c1ccc(Cl)c(OCCNS(=O)(=O)c2cccs2)c1Cl` [Example 35], for which the logP result under setting [3] was “(I-2) logP = 2.92^a)”.
With `CCn1ncc(C(=O)c2ccc(S(C)(=O)=O)c(CNOCc3ccccc3)c2Cl)c1O` [Example 349], the “logP (HPLC, mobile phase not marked)” value is listed as 2.31.
With `CCN(Cc1c(Cl)ccc(C(=O)C2C(=O)CCCC2=O)c1Cl)OC` [Example 148], the logP entry under setting [3] is recorded as “logP = 3.63^a)”.
`CCn1ncc(C(=O)c2ccc(S(C)(=O)=O)c(CN(OC(C)C)C(C)C)c2Cl)c1O` [Example 421]: the logP entry under setting [1] is “logP = 3.25^a)”.
Still for that read-out and setting: for `CCON(CC)Cc1c(S(C)(=O)=O)ccc(C(=O)C2C(=O)CCCC2=O)c1Cl` [Example 390] the value was “logP = 3.22^a)”.
Still for that read-out and setting: the result for `CCN(Cc1c(Cl)ccc(C(=O)c2cnn(CC)c2O)c1OC)S(C)(=O)=O` [Example 462] reads “logP = 2.12^a)”; that for `CCn1ncc(C(=O)c2ccc(Br)c(OCCNS(=O)(=O)CC)c2C)c1O` [Example 362], “logP = 2.09^a)”.
Regarding `CON(Cc1c(S(C)(=O)=O)ccc(C(=O)C2C(=O)CCCC2=O)c1Cl)C1CCCOC1` (stereo not shown) [Example 411], the logP entry under setting [1] is on record as “(I-2) logP = 2.74^a)”.
Same read-out and setting: the result for `CCN(Cc1c(Cl)ccc(C(=O)C2C(=O)CCCC2=O)c1OC)OC` [Example 483] reads “logP = 3.19^a)”; that for `CCN(Cc1c(S(C)(=O)=O)ccc(C(=O)C2C(=O)CCC(C)(C)C2=O)c1Cl)OC(C)C` (stereo not shown) [Example 403], “(I-2) logP = 4.36^a)”.
For `COC(=O)c1ccc(Cl)c(CN(C)OC)c1OC` [VIII-66], under setting [2], the “log P (acidic)” value was “logPacidic = 2.76”.
In the case of `CN(Cc1c(S(C)(=O)=O)ccc(C(=O)C2C(=O)CCCC2=O)c1Cl)OC1CCCC1` [Example 398], under setting [1], the logP entry is reported as “(I-2) logP = 3.69^a)”.
Still for that read-out and setting: for `CCn1ncc(C(=O)c2ccc(S(C)(=O)=O)c(CN(OC)C3CCOC3)c2Cl)c1O` (stereo not shown) [Example 410] the value was “(I-2) logP = 1.70^a)”.
`CCN(Cc1c(Cl)ccc(C(=O)OC)c1OC)S(C)(=O)=O` [VIII-71]: under setting [2], the “log P (acidic)” value was “logPacidic = 2.38”.
Consider `CCN(Cc1c(S(C)(=O)=O)ccc(C(=O)C2C(=O)CCCC2=O)c1Cl)OC` [Example 308], for which the “logP (HPLC, mobile phase not marked)” value is given as “(I-2) 2.87”.
In the case of `CN(Cc1c(Cl)ccc(C(=O)C2C(=O)CCCC2=O)c1Cl)S(C)(=O)=O` [Example 458], the logP entry under setting [1] is listed as “logP = 2.32^a)”.
On the same count and under the same terms, for `CC(C)ON(Cc1c(S(C)(=O)=O)ccc(C(=O)c2cnn(C)c2O)c1Cl)C(C)C` [Example 400] the value was “logP = 2.81^a)”.
The same measure, in the same setting: the result for `CCn1ncc(C(=O)c2ccc(S(C)(=O)=O)c(CN(CC3CCOC3)OC)c2Cl)c1O` (stereo not shown) [Example 423] reads “(I-2) logP = 1.97^a)”.
The same measure, in the same setting: for `CCn1ncc(C(=O)c2ccc(Cl)c(OCCNS(=O)(=O)CC)c2C)c1O` [Example 358] the value was “logP = 2.03^a)”; for `CCN(Cc1c(S(C)(=O)=O)ccc(C(=O)C2C(=O)CCCC2=O)c1Cl)S(C)(=O)=O` [Example 467], “logP = 2.02^a)”.
Regarding `CCN(Cc1c(Cl)ccc(C(=O)C2C(=O)CCCC2=O)c1OC)S(C)(=O)=O` [Example 464], the logP result under setting [1] is given as “logP = 2.47^a)”.
On the same count and under the same terms, the result for `CCON(C)Cc1c(S(C)(=O)=O)ccc(C(=O)c2cnn(CC)c2O)c1Cl` [Example 413] reads “logP = 2.09^a)”.
In the case of `CON(Cc1c(S(C)(=O)=O)ccc(C(=O)O)c1Cl)C(C)C` [II-3, 2-chloro-4-methylsulphonyl-3-(N-methoxy-N-(1-methylethyl)aminomethyl)benzoic acid], under setting [2], the chromatographic logP is 2.09.
Consider `COc1c(C(=O)C2C(=O)CCC(C)(C)C2=O)ccc(Cl)c1CN(C)S(C)(=O)=O` (stereo not shown) [Example 473], for which the logP entry under setting [1] is on record as “(I-2) logP = 2.92^a)”.
Same read-out and setting: the result for `CC(C)ON(Cc1c(S(C)(=O)=O)ccc(C(=O)C2C(=O)CCCC2=O)c1Cl)C(C)C` [Example 420] reads “logP = 3.99^a)”.
Regarding `CCn1nc(C)c(C(=O)c2ccc(S(C)(=O)=O)c(CN(C)OC)c2Cl)c1O` [Example 307], the “logP (HPLC, mobile phase not marked)” value is given as 1.45.
Take `COC(=O)c1ccc(S(C)(=O)=O)c(CN(OC)C(C)C)c1Cl` [VIII-3]: the chromatographic logP under setting [2] is 3.13.
Consider `COC(=O)c1ccc(S(C)(=O)=O)c(CN(C)OCC2CC2)c1Cl` [VIII-33], for which, under setting [2], the “log P (acidic)” value was “logPacidic = 2.98”.
As to `COc1c(C(=O)c2cnn(C)c2O)ccc(Cl)c1CN(C)S(C)(=O)=O` [Example 471], the logP entry under setting [1] is recorded as “logP = 1.55^a)”.
As to `CCn1ncc(C(=O)c2ccc(S(C)(=O)=O)c(CN(OC)C3CCCC3)c2Cl)c1O` [Example 379], under setting [1], the logP entry is recorded as “(I-2) logP = 2.99^a)”.
With `CCN(Cc1c(Cl)ccc(C(=O)c2cnn(C)c2O)c1Cl)OC` [Example 480], the logP entry under setting [1] was “logP = 2.46^a)”.
In the case of `CCn1ncc(C(=O)c2ccc(S(C)(=O)=O)c(CN(C)OCC3CC3)c2Cl)c1O` [Example 445], the logP result under setting [1] is on record as “(I-2) logP = 2.05^a)”.
Still for that read-out and setting: the result for `CCONCc1c(Cl)ccc(C(=O)c2cnn(CC)c2O)c1OC` [Example 448] reads “logP = 3.60^a)”.
For `CCN(CC)C(=O)CN(Cc1c(S(C)(=O)=O)ccc(C(=O)OC)c1Cl)OC` [VIII-36], under setting [2], the “log P (acidic)” value is “logPacidic = 2.28”.
On to `CCn1ncc(C(=O)c2ccc(S(C)(=O)=O)c(CN(C)OC(C)C)c2Cl)c1O` [Example 395], for which, under setting [1], the logP result is “logP = 2.33^a)”.
As for `CS(=O)(=O)NCCOc1c(Br)ccc(C(=O)C2C(=O)CCCC2=O)c1Br` [Example 18], the logP entry under setting [3] was “logP = 2.23^a)”.
Turning to `CCn1ncc(C(=O)c2ccc(Cl)c(OCCNS(=O)(=O)c3cccs3)c2Cl)c1O` [Example 34], the logP entry under setting [3] is “(I-2) logP = 2.41^a)”.
Consider `CCON(Cc1c(S(C)(=O)=O)ccc(C(=O)c2cnn(C)c2O)c1Cl)CC1CCOC1` (stereo not shown) [Example 427], for which, under setting [1], the logP entry was “(I-2) logP = 1.90^a)”.
For `CCn1ncc(C(=O)c2ccc(S(C)(=O)=O)c(CN(C)OC)c2Cl)c1O` [Example 11], the logP entry under setting [3] is “logP = 1.78^a)”.
For the compound `CCCS(=O)(=O)NCCOc1c(Cl)ccc(C(=O)OCC)c1Cl` [VIII-19], the “log P” value was “logP = 2.92”.
On to `CCONCc1c(Cl)ccc(C(=O)c2cnn(C)c2O)c1Cl` [Example 450], for which the logP result under setting [1] is “logP = 1.67^a)”.
Same read-out and setting: the result for `CCON(Cc1c(S(C)(=O)=O)ccc(C(=O)c2cnn(CC)c2O)c1Cl)C(C)C` [Example 392] reads “logP = 2.89^a)”.
Consider `CCn1ncc(C(=O)c2ccc(S(C)(=O)=O)c(OCCNS(C)(=O)=O)c2Cl)c1O` [Example 13], for which the logP result under setting [3] is “logP = 1.23^a)”.
`CCn1ncc(C(=O)c2ccc(S(C)(=O)=O)c(CN(OC)C(C)C)c2Cl)c1O` [Example 370]: the logP result under setting [1] is “logP = 2.52^a)”.
On the same count and under the same terms, the result for `CCn1ncc(C(=O)c2ccc(S(C)(=O)=O)c(CN(OC)C(C)C3CC3)c2Cl)c1O` (stereo not shown) [Example 373] reads “(I-2) logP = 2.94^a)”.
Same read-out and setting: for `CCn1ncc(C(=O)c2ccc(Cl)c(OCCNS(C)(=O)=O)c2C)c1O` [Example 360] the value was “logP = 1.82^a)”.
Take `COCCON(C)Cc1c(S(C)(=O)=O)ccc(C(=O)c2cnn(C)c2O)c1Cl` [Example 433]: the logP result under setting [1] is given as “(I-2) logP = 1.51^a)”.
On to `COC(=O)c1ccc(Br)c(OCCNS(C)(=O)=O)c1C` [VIII-28], for which the “log P (acidic)” value under setting [2] is listed as “logPacidic = 2.20”.
As for `CCN(Cc1c(S(C)(=O)=O)ccc(C(=O)OC)c1Cl)S(C)(=O)=O` [VIII-72], under setting [2], the “log P (acidic)” value was “logPacidic = 1.88”.
For `CCn1ncc(C(=O)c2ccc(S(C)(=O)=O)c(CN(C)OCC3CCCCO3)c2Cl)c1O` (stereo not shown) [Example 439], the logP entry under setting [1] was “(I-2) logP = 2.35^a)”.
